Experimental data: PubChem BioAssay AID330 (DTP/NCI, 2004)
Where “and” joins values, the source holds several entries; their conditions need not be identical. Equal entries are not always repeated. Inconclusive results and toxic doses are left out.

Tested on: P388 leukemia ip, CD2F1 mice, survival T/C
Experiment: NCI In Vivo Anticancer Drug Screen. Data for tumor model P388 Leukemia (intraperitoneal) in CD2F1 (CDF1) mice
Details: endpoint: median survival time, higher = longer survival
Outline: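 Mice carrying the transplanted tumor received test compound or vehicle. Survival was recorded in each group, and the value is the treated-group measurement divided by that of the vehicle-treated control group.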

[1] = dose: 25.0 mg/kg/injection, schedule: Q01DX009 (ip), vehicle: saline
[2] = dose: 50.0 mg/kg/injection, schedule: Q01DX009 (ip), vehicle: saline
[3] = dose: 100.0 mg/kg/injection, schedule: Q01DX009 (ip), vehicle: saline with Tween-80
[4] = dose: 200.0 mg/kg/injection, schedule: Q01DX009 (ip), vehicle: saline with Tween-80
[5] = dose: 50.0 mg/kg/injection, schedule: Q01DX009 (ip), vehicle: saline with Tween-80

Structure (SMILES): C=C1C(=O)OC2/C=C(/CO)CC/C=C(/C=O)CC(O)C12 (stereo not given)
- T/C (dose: 1.89 mg/kg/injection, schedule: Q01DX005 (ip), vehicle: saline + Tween-80 + alcohol): 101 % of control
- T/C (dose: 3.75 mg/kg/injection, schedule: Q01DX005 (ip), vehicle: saline + Tween-80 + alcohol): 100 % of control
- T/C (dose: 7.5 mg/kg/injection, schedule: Q01DX005 (ip), vehicle: saline + Tween-80 + alcohol): 101 % of control
- T/C (dose: 15.0 mg/kg/injection, schedule: Q01DX005 (ip), vehicle: saline + Tween-80 + alcohol): 99 % of control

Structure (SMILES): COCCn1c(=O)[nH]c(=O)c2c(Nc3ccccc3)snc21
- T/C [1]: 100 % of control and 93 % of control
- T/C [2]: 98 % of control and 99 % of control and 89 % of control
- T/C [3]: 95 % of control
- T/C (dose: 100.0 mg/kg/injection, schedule: Q01DX009 (ip), vehicle: saline): 98 % of control and 112 % of control and 97 % of control
- T/C [4]: 100 % of control
- T/C (dose: 200.0 mg/kg/injection, schedule: Q01DX009 (ip), vehicle: saline): 99 % of control

Structure (SMILES): COc1cc2c(c(OC)c1OC)-c1cc3c(cc1CC1COC(=O)C1C2)OCO3 (stereo not given)
- T/C (dose: 2.5 mg/kg/injection, schedule: Q04DX002 (ip), vehicle: saline with Tween-80): 97 % of control and 96 % of control and 102 % of control
- T/C (dose: 5.0 mg/kg/injection, schedule: Q04DX002 (ip), vehicle: saline with Tween-80): 95 % of control [middle of 6 runs]
- T/C (dose: 10.0 mg/kg/injection, schedule: Q04DX002 (ip), vehicle: saline with Tween-80): 101 % of control [middle of 6 runs]
- T/C (dose: 12.5 mg/kg/injection, schedule: Q01DX009 (ip), vehicle: saline with Tween-80): 100 % of control
- T/C (dose: 20.0 mg/kg/injection, schedule: Q04DX002 (ip), vehicle: saline with Tween-80): 96 % of control and 104 % of control
- T/C (dose: 25.0 mg/kg/injection, schedule: Q01DX009 (ip), vehicle: saline with Tween-80): 97 % of control
- T/C (dose: 25.0 mg/kg/injection, schedule: Q04DX002 (ip), vehicle: saline with Tween-80): 100 % of control
- T/C [5]: 95 % of control
- T/C (dose: 50.0 mg/kg/injection, schedule: Q04DX002 (ip), vehicle: saline with Tween-80): 104 % of control
- T/C (dose: 100.0 mg/kg/injection, schedule: Q04DX002 (ip), vehicle: saline with Tween-80): 87 % of control and 119 % of control
- T/C (dose: 200.0 mg/kg/injection, schedule: Q04DX002 (ip), vehicle: saline with Tween-80): 91 % of control

Structure (SMILES): O=C1CCC(n2cc(F)c(=O)[nH]c2=O)O1 (stereo not given)
- T/C (dose: 25.0 mg/kg/injection, schedule: Q04DX003 (ip), vehicle: saline with Tween-80): 105 % of control and 94 % of control
- T/C (dose: 50.0 mg/kg/injection, schedule: Q04DX003 (ip), vehicle: saline with Tween-80): 108 % of control and 95 % of control
- T/C (dose: 100.0 mg/kg/injection, schedule: Q04DX003 (ip), vehicle: saline with Tween-80): 101 % of control and 120 % of control and 95 % of control
- T/C (dose: 400.0 mg/kg/injection, schedule: Q04DX003 (ip), vehicle: saline with Tween-80): 103 % of control

Structure (SMILES): CC(C)(Oc1ccc(Cl)cc1)C(=O)NC(CS(C)(=O)=O)C(=O)O (stereo not given)
- T/C (dose: 50.0 mg/kg/injection, schedule: Q01DX005 (ip), vehicle: saline): 99 % of control
- T/C (dose: 100.0 mg/kg/injection, schedule: Q01DX005 (ip), vehicle: saline): 99 % of control
- T/C (dose: 200.0 mg/kg/injection, schedule: Q01DX005 (ip), vehicle: saline): 100 % of control

Structure (SMILES): COc1ccc([Si](C)(C)CNCCSS(=O)(=O)O)cc1
- T/C [5]: 90 % of control
- T/C [3]: 95 % of control
- T/C [4]: 90 % of control

Structure (SMILES): Cc1cccn2c(CCCc3nnc4c(C)cccn34)nnc12
- T/C [5]: 100 % of control
- T/C [3]: 101 % of control
- T/C [4]: 101 % of control

Structure (SMILES): CCOC(=O)Cc1ccnc(C)c1
- T/C [5]: 90 % of control
- T/C [3]: 90 % of control
- T/C [4]: 100 % of control

Structure (SMILES): Oc1ccc(C(O)CNCCCCCCNCC(O)c2ccc(O)c(O)c2)cc1O (stereo not given)
- T/C (dose: 33.0 mg/kg/injection, schedule: Q01DX009 (ip), vehicle: saline): 99 % of control and 88 % of control
- T/C [2]: 121 % of control and 87 % of control and 96 % of control
- T/C (dose: 75.0 mg/kg/injection, schedule: Q01DX009 (ip), vehicle: saline): 96 % of control

Structure (SMILES): O=S(=O)(c1ccc(NC(=S)N/N=C/c2ccccc2O)cc1)N1CCCCC1
- T/C (dose: 12.5 mg/kg/injection, schedule: Q01DX009 (ip), vehicle: olive oil, sesame oil, peanut oil): 105 % of control
- T/C (dose: 25.0 mg/kg/injection, schedule: Q01DX009 (ip), vehicle: olive oil, sesame oil, peanut oil): 96 % of control
- T/C (dose: 50.0 mg/kg/injection, schedule: Q01DX009 (ip), vehicle: olive oil, sesame oil, peanut oil): 96 % of control
- T/C (dose: 100.0 mg/kg/injection, schedule: Q01DX009 (ip), vehicle: olive oil, sesame oil, peanut oil): 91 % of control
- T/C (dose: 200.0 mg/kg/injection, schedule: Q01DX009 (ip), vehicle: olive oil, sesame oil, peanut oil): 91 % of control
- T/C (dose: 400.0 mg/kg/injection, schedule: Q01DX009 (ip), vehicle: olive oil, sesame oil, peanut oil): 97 % of control

Structure (SMILES): O=C1NC(=O)c2c3ccc(c21)CCc1ccc(c2c1C(=O)NC2=O)CC3
- T/C [5]: 97 % of control
- T/C [3]: 92 % of control
- T/C [4]: 92 % of control

Structure (SMILES): O=C(NC1CC1)OCc1c(COC(=O)NC2CC2)c(-c2ccc(Cl)c(Cl)c2)n2c1CCC2
- T/C (dose: 6.25 mg/kg/injection, schedule: Q01DX009 (ip), vehicle: distilled water + Tween-80): 160 % of control
- T/C (dose: 12.5 mg/kg/injection, schedule: Q01DX009 (ip), vehicle: distilled water + Tween-80): 171 % of control and 183 % of control
- T/C (dose: 25.0 mg/kg/injection, schedule: Q01DX009 (ip), vehicle: distilled water + Tween-80): 101 % of control and 206 % of control

Structure (SMILES): Cc1c(-c2ccccc2)n(O)c(-c2ccccc2Cl)[n+]1[O-]
- T/C [5]: 94 % of control
- T/C [3]: 98 % of control
- T/C [4]: 100 % of control

Structure (SMILES): COc1cccc2c1C(=O)c1c(O)c3c(c(O)c1C2=O)C[C@@](O)(C(C)NCCCO)C[C@@H]3OC1CC(N)C(O)C(C)O1 (stereo not given in full)
- T/C (dose: 0.5 mg/kg/injection, schedule: Q01DX009 (ip), vehicle: water): 122 % of control
- T/C (dose: 1.0 mg/kg/injection, schedule: Q01DX009 (ip), vehicle: water): 150 % of control
- T/C (dose: 2.0 mg/kg/injection, schedule: Q01DX009 (ip), vehicle: water): 154 % of control and 163 % of control
- T/C (dose: 4.0 mg/kg/injection, schedule: Q01DX009 (ip), vehicle: water): 163 % of control and 173 % of control
- T/C (dose: 8.0 mg/kg/injection, schedule: Q01DX009 (ip), vehicle: water): 174 % of control and 175 % of control
- T/C (dose: 16.0 mg/kg/injection, schedule: Q01DX009 (ip), vehicle: water): 201 % of control

Structure (SMILES): COc1cc(/C=N/NC(=O)COCC(=O)N/N=C/c2ccc(O)cc2OC)ccc1O
- T/C (dose: 6.25 mg/kg/injection, schedule: Q01DX005 (ip), vehicle: saline with Tween-80): 103 % of control
- T/C (dose: 12.5 mg/kg/injection, schedule: Q01DX005 (ip), vehicle: saline with Tween-80): 101 % of control
- T/C (dose: 25.0 mg/kg/injection, schedule: Q01DX005 (ip), vehicle: saline with Tween-80): 105 % of control

Structure (SMILES): Cc1cccc2c1/C(=C1/c3ccccc3C(=O)c3cccc(C)c31)c1ccccc1C2=O
- T/C (dose: 50.0 mg/kg/injection, schedule: Q01DX005 (ip), vehicle: Klucel + Tween-80): 87 % of control
- T/C (dose: 100.0 mg/kg/injection, schedule: Q01DX005 (ip), vehicle: Klucel + Tween-80): 90 % of control

Structure (SMILES): CNC(=O)OCc1c(COC(=O)NC)c(C)n(-c2ccc(Cl)cc2)c1C
- T/C (dose: 12.5 mg/kg/injection, schedule: Q01DX009 (ip), vehicle: saline): 160 % of control
- T/C [1]: 166 % of control

Structure (SMILES): NNC(=O)C1CC2c3ccccc3C1c1ccccc12 (stereo not given)
- T/C (dose: 60.0 mg/kg/injection, schedule: Q01DX005 (ip), vehicle: saline with Tween-80): 101 % of control
- T/C (dose: 120.0 mg/kg/injection, schedule: Q01DX005 (ip), vehicle: saline with Tween-80): 99 % of control
- T/C (dose: 240.0 mg/kg/injection, schedule: Q01DX005 (ip), vehicle: saline with Tween-80): 97 % of control

Structure (SMILES): CCCCCCCCOP(=O)(N1CC1)N1CC1
- T/C (dose: 22.0 mg/kg/injection, schedule: Q04DX003 (ip), vehicle: saline): 154 % of control
- T/C (dose: 33.0 mg/kg/injection, schedule: Q04DX003 (ip), vehicle: saline): 222 % of control
- T/C (dose: 50.0 mg/kg/injection, schedule: Q04DX003 (ip), vehicle: saline): 159 % of control
- T/C (dose: 75.0 mg/kg/injection, schedule: Q04DX003 (ip), vehicle: saline): 118 % of control
